Data from patent US8017401B2, “Method for determining redox activity and screening compounds based on redox activity” (State of Oregon acting by and through the State Board of …, priority 2005, dated 2011).
Where two headings read alike, the source gives them in different places.

Key:
[1] = Redox activity of activators and inhibitors of membrane-bound transport proteins (overview statement); format: physicochemical; details: activators and inhibitors of the sarcoplasmic reticulum calcium release channel; no reference given
[2] = modulators of L-type calcium channel, sodium channel, mitochondrial ATP-dependent potassium channel; references 1-3; cited from earlier work
[3] = Redox activity by reaction with photo-excited dye under aerobic conditions (probe reduction at 470 nm and dye photo-bleaching); format: physicochemical; details: for redox activity (electron donor or electron acceptor): conclusion from the photo-excited dye assay of the respective example
[4] = tested on: sarcoplasmic reticulum Ca^2+ release channel; details: cited from earlier work
[5] = target: xanthine-xanthine oxidase reaction (Homo sapiens, UniProt P47989); assay: Superoxide measurement in the xanthine-xanthine oxidase reaction; format: biochemical
Chain of xanthine-xanthine oxidase reaction (P47989 whole entry): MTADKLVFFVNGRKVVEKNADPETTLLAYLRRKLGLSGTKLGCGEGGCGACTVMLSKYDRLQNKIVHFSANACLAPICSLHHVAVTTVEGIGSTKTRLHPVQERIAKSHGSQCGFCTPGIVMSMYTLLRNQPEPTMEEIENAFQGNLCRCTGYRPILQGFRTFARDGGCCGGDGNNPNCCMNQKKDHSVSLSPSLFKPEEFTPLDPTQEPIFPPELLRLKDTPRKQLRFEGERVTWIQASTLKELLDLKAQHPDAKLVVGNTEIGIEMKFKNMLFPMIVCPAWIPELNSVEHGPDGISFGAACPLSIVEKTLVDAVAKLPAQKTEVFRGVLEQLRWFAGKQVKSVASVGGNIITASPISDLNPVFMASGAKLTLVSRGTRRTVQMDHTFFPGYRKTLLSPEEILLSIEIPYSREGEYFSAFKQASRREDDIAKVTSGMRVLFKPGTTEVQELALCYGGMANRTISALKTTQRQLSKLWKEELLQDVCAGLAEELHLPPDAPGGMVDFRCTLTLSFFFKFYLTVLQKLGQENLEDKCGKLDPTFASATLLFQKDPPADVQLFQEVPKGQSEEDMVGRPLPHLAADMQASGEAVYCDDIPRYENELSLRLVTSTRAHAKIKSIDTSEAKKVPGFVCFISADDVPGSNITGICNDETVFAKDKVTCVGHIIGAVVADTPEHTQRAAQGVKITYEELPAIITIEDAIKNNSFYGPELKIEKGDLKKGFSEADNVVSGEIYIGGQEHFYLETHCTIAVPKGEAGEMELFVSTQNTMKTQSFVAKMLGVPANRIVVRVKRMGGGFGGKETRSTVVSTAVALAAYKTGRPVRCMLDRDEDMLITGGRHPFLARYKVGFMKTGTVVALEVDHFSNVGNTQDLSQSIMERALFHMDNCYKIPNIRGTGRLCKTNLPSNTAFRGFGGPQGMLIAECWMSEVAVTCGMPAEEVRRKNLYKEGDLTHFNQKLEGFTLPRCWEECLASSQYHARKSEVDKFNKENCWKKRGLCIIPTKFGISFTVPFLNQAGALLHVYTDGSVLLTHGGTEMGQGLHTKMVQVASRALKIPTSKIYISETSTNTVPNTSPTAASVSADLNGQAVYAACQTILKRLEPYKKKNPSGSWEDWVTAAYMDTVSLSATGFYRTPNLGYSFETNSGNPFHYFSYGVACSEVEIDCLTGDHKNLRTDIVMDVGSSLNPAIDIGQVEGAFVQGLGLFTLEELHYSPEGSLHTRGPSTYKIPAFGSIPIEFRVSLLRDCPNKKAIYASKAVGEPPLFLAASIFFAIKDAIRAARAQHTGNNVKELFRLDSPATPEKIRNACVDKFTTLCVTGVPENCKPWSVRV

[6] = Reaction of NBD-Cl with KO2: stopped-flow kinetics, absorbance and fluorescence calibration; format: physicochemical
[7] = 10 μM erythrosin, 50 μM NBD-Cl, 80% dimethyl sulfoxide / 20% 1 mM Tris-HCl, pH 7.4, compound 200 μM (diethyl benzocaine 2 mM) vs control
[8] = 10 μM methylene blue, 100 μM NADH, 50 μM NBD-Cl, 10 mM Tris-HCl in water, pH 7.4, doxorubicin 25 and 50 μM vs zero

Row | Molecule | redox activity (electron donor or electron acceptor) [1] | redox activity (electron donor or electron acceptor) [3] | also measured
1 | Cn1c(=O)c2c(ncn2C)n(C)c1=O [caffeine] | electron acceptors | – | –
2 | Oc1ccc(-c2[o+]c3cc(O)cc(O)c3cc2O)cc1 [pelargonidine] | – | – | redox activity (electron donor or electron acceptor) [2]: electron acceptor
3 | ryanodine | – | – | concentrations at which it is a specific activator of the calcium release channel [4]: 1 to 2 µM
4 | COc1cc(-c2ccc(-n3nc(-c4ccccc4)n[n+]3-c3ccc([N+](=O)[O-])cc3)c(OC)c2)ccc1-n1nc(-c2ccccc2)n[n+]1-c1ccc([N+](=O)[O-])cc1 [NBT, nitroblue tetrazolium] | – | – | Superoxide at 550 nm (initial rate of superoxide formation) ([5]; pH 7.4): 0.038 ± 0.002
5 | CN(C)C(=O)/N=N/C(=O)N(C)C [diamide] | electron acceptors | – | –
6 | CC[C@H]1[C@@H]2C[C@H]3[C@@H]4N(C)c5ccccc5[C@]45C[C@@H]([C@@H]2[C@H]5O)N3[C@@H]1O [ajmalin] | – | electron donors | rate of NBD-Cl reduction (increasing absorbance at 470 nm) [3, 7]: increased; relative degree of electron donor activity ([3]; 10 μM erythrosin, 50 μM NBD-Cl, 80% dimethyl sulfoxide, from level of increase of NBD-Cl reduction rate): stronger electron donor than diethyl benzocaine
7 | 2,3-bis(2-methoxy-4-nitro-5-sulphophenyl)-5-[(phenylamino)carbonyl]-2H-tetrazolium hydroxide [XTT] | – | – | effect of the probe on the xanthine-xanthine oxidase reaction rate [5]: about a two-fold increase; Superoxide at 470 nm (initial rate of superoxide formation) ([5]; pH 7.4): 0.225 ± 0.010; second-order rate constants for reduction by superoxide [6]: 8.59±0.81×10^4 M^−1s^−1
8 | O=C1c2c(O)ccc(O)c2C(=O)c2c(NCCNCCO)ccc(NCCNCCO)c21 [mitoxantrone] | electron acceptors | – | –
9 | COc1cccc2c1C(=O)c1c(O)c3c(c(O)c1C2=O)C[C@@](O)(C(=O)CO)C[C@@H]3O[C@H]1C[C@H](N)[C@H](O)[C@H](C)O1 [doxorubicin] | electron acceptors | electron acceptor | rate of NBD-Cl reduction (increasing absorbance at 470 nm) [3, 8]: decreased; rate of methylene blue bleaching (decreasing absorbance at 663 nm) [3, 8]: decreased

Now from value to molecule, other results behind:

Row | redox activity (electron donor or electron acceptor) [1] | redox activity (electron donor or electron acceptor) [3] | Molecule | also measured
10 | electron donors | – | CCN(CC)CCOC(=O)c1ccc(N)cc1 [procaine] | –
11 | – | electron donor | CC(C)COCC(CN(Cc1ccccc1)c1ccccc1)N1CCCC1 (stereo not shown) [bepridil] | rate of XTT reduction (increasing absorbance at 470 nm) ([3]; 10 μM eosin, 50 μM XTT, 1 mM Tris-HCl in water, pH 7.4, bepridil 20 and 200 μM vs zero): increased
12 | electron donors | – | N[C@@H](CCC(=O)N[C@@H](CS)C(=O)NCC(=O)O)C(=O)O [glutathione] | –
13 | electron donors | electron donors | CCCCNc1ccc(C(=O)OCCN(C)C)cc1 [tetracaine] | rate of NBD-Cl reduction (increasing absorbance at 470 nm) [3, 7]: increased
14 | electron acceptors | – | N[C@@H](CSSC[C@H](N)C(=O)O)C(=O)O [cystine] | –
15 | electron donors | – | N[C@@H](CS)C(=O)O [cysteine] | –
16 | – | electron donors | diethyl benzocaine | redox activity (electron donor or electron acceptor) [2]: electron donor; rate of NBD-Cl reduction (increasing absorbance at 470 nm) [3, 7]: increased
